Measured values published in patent US20060116390A1, “Hepatitis c virus inhibitors” (priority 2003, published 2006).
Like-named read-outs stand apart in the source and are kept apart here.

Tested on: HCV proteins in Rep5.1 cells (replicon cell line)
Assay: Inhibitory activity of HCV: cell-based ELISA in replicon cell line Rep5.1 (decrease of HCV proteins)
Design: species or system hepatitis C virus
Conditions: Rep5.1 cells, 72 hours with drug
Method in brief: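 Rep5.1 replicon cells (5000/well, DMEM-10 with 500 μg/ml G418) were given serially diluted drug 4 h after seeding. After 72 h, cells were fixed in methanol/acetone and HCV proteins detected by cell-based ELISA using replicon-specific patient plasma antibodies. IC50 is the concentration giving 50% protein decrease versus the no-drug control.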

[1] = Hepatitis C virus, 72 h, concentration at which 50% of HCV proteins was decreased, Table 2, read-out: IC50
[2] = Hepatitis C virus, 72 h, decrease of HCV proteins measured by HCV antibody, Table 1, read-out: Level (IC50 values classified)

CC1=C(C(=O)OCC2CCCCC2)CNC(=S)N1 [Compound 29, 6-methyl-2-thioxo-1,2,3,4-tetrahydro-pyrimidine-5-carboxylic acid cyclohexylmethyl ester]
IC50 [1]: 300 nM | IC50 [2]: < 1000 nM

C=C(Br)CCOC(=O)C1=C(C)NC(=S)NC1 [Compound 99, 6-methyl-2-thioxo-1,2,3,4-tetrahydro-pyrimidine-5-carboxylic acid 3-bromo-but-3-enyl ester]
IC50 [1]: 1800 nM | IC50 [2]: 1000 to 10000 nM

CC1=C(C(=O)OCc2ccccn2)CNC(=S)N1 [Compound 154, 6-methyl-2-thioxo-1,2,3,4-tetrahydro-pyrimidine-5-carboxylic acid pyridin-2-ylmethyl ester]
IC50 [1]: > 100000 nM | IC50 [2]: > 20000 nM

CC1=C(C(=O)OCc2c(C)nn(-c3ccccc3)c2C)CNC(=S)N1 [Compound 181, 6-methyl-2-thioxo-1,2,3,4-tetrahydro-pyrimidine-5-carboxylic acid 3,5-dimethyl-1-phenyl-1H-pyrazol-4-ylmethyl ester]
IC50 [1]: > 100000 nM | IC50 [2]: > 20000 nM

O=C(OCc1ccccc1)C1=CNC(=S)NC1 [Compound 44, 2-thioxo-1,2,3,4-tetrahydro-pyrimidine-5-carboxylic acid benzyl ester]
IC50 [1]: 3000 nM | IC50 [2]: 1000 to 10000 nM

CC1=C(C(=O)OCCc2csc([N+](=O)[O-])c2)CNC(=S)N1 [26′, 6-methyl-2-thioxo-1,2,3,4-tetrahydro-pyrimidine-5-carboxylic acid 2-(5-nitro-thiophen-3-yl)-ethyl ester]
IC50 [1]: 900 nM | IC50 [2]: < 1000 nM

CC1=C(C(=O)OCc2cc(Cl)ccc2[N+](=O)[O-])CNC(=S)N1 [Compound 143, 6-methyl-2-thioxo-1,2,3,4-tetrahydro-pyrimidine-5-carboxylic acid 5-chloro-2-nitro-benzyl ester]
IC50 [1]: 400 nM | IC50 [2]: < 1000 nM

O=C(OCCc1ccsc1)C1=C(CF)NC(=S)NC1 [57′, 6-fluoromethyl-2-thioxo-1,2,3,4-tetrahydro-pyrimidine-5-carboxylic acid 2-thiophen-3-yl-ethyl ester]
IC50 [1]: 10000 nM | IC50 [2]: 1000 to 10000 nM

CC1=C(C(=O)OCCc2ccsc2)C(CO)NC(=S)N1 (stereo not drawn) [3″, 4-hydroxymethyl-6-methyl-2-thioxo-1,2,3,4-tetrahydro-pyrimidine-5-carboxylic acid 2-thiophen-3-yl-ethyl ester]
IC50 [1]: 9000 nM | IC50 [2]: 1000 to 10000 nM

CC1=C(C(=O)OCCCc2ccccc2)C(CF)NC(=S)N1 (stereo not drawn) [31′, 4-fluoromethyl-6-methyl-2-thioxo-1,2,3,4-tetrahydro-pyrimidine-5-carboxylic acid 3-phenyl-propyl ester]
IC50 [1]: 400 nM | IC50 [2]: < 1000 nM

CC1=C(C(=O)OCCCc2cccs2)C(CF)NC(=S)N1 (stereo not drawn) [10′, 4-fluoromethyl-6-methyl-2-thioxo-1,2,3,4-tetrahydro-pyrimidine-5-carboxylic acid 3-thiophen-2-yl-propyl ester]
IC50 [1]: 1200 nM | IC50 [2]: 1000 to 10000 nM

CC1=C(C(=O)OCCc2ccsc2)C(C(F)(F)F)NC(=S)N1 (stereo not drawn) [8′, 6-methyl-2-thioxo-4-trifluoromethyl-1,2,3,4-tetrahydro-pyrimidine-5-carboxylic acid 2-thiophen-3-yl-ethyl ester]
IC50 [1]: 21000 nM | IC50 [2]: > 20000 nM

CC1=C(C(=O)OCCc2ccccc2Cl)CNC(=S)N1 [Compound 118, 6-methyl-2-thioxo-1,2,3,4-tetrahydro-pyrimidine-5-carboxylic acid 2-(2-chloro-phenyl)-ethyl ester]
IC50 [1]: < 400 nM | IC50 [2]: < 1000 nM

CC1=C(C(=O)OCCc2csc([N+](=O)[O-])c2)C(CF)NC(=S)N1 (stereo not drawn) [28′, 4-fluoromethyl-6-methyl-2-thioxo-1,2,3,4-tetrahydro-pyrimidine-5-carboxylic acid 2-(5-nitro-thiophen-3-yl)-ethyl ester]
IC50 [1]: 72000 nM | IC50 [2]: > 20000 nM

CC1=C(C(=O)OCCc2cn(C)c3ccccc23)CNC(=S)N1 [Compound 165, 6-methyl-2-thioxo-1,2,3,4-tetrahydro-pyrimidine-5-carboxylic acid 2-(1-methyl-1H-indol-3-yl)-ethyl ester]
IC50 [1]: 1400 nM | IC50 [2]: 1000 to 10000 nM

COc1ccccc1CCOC(=O)C1=C(C)NC(=S)NC1 [Compound 115, 6-methyl-2-thioxo-1,2,3,4-tetrahydro-pyrimidine-5-carboxylic acid 2-(2-methoxy-phenyl)-ethyl ester]
IC50 [1]: 700 nM | IC50 [2]: < 1000 nM

CC1=C(C(=O)OCCCc2ccsc2)C(CS(=O)(=O)C(C)(C)C)NC(=S)N1 (stereo not drawn) [68′, 6-methyl-4-(2-methyl-propane-2-sulfonylmethyl)-2-thioxo-1,2,3,4-tetrahydro-pyrimidine-5-carboxylic acid 3-thiophen-3-yl-propyl ester]
IC50 [1]: > 100000 nM | IC50 [2]: > 20000 nM

CC1=C(C(=O)OCc2cccc(C(F)(F)F)c2)CNC(=S)N1 [Compound 101, 6-methyl-2-thioxo-1,2,3,4-tetrahydro-pyrimidine-5-carboxylic acid 3-trifluoromethyl-benzyl ester]
IC50 [1]: < 400 nM | IC50 [2]: < 1000 nM

CCC#CCCOC(=O)C1=C(C)NC(=S)NC1 [Compound 157, 6-methyl-2-thioxo-1,2,3,4-tetrahydro-pyrimidine-5-carboxylic acid hex-3-inyl ester]
IC50 (concentration at which 50% of HCV proteins was decreased, Table 2, read-out: IC50): 1000 nM

CC1=C(C(=O)OCCc2cccc(C)c2)CNC(=S)N1 [Compound 172, 6-methyl-2-thioxo-1,2,3,4-tetrahydro-pyrimidine-5-carboxylic acid 2-m-tolyl-ethyl ester]
IC50 [1]: < 400 nM | IC50 [2]: < 1000 nM

CSCCCOC(=O)C1=C(C)NC(=S)NC1CO (stereo not drawn) [29″, 4-hydroxymethyl-6-methyl-2-thioxo-1,2,3,4-tetrahydro-pyrimidine-5-carboxylic acid 3-methylsulfanyl-propyl ester]
IC50 [1]: > 100000 nM | IC50 [2]: > 20000 nM

CC1=C(C(=O)OC2Cc3ccccc3C2)CNC(=S)N1 [Compound 124, 6-methyl-2-thioxo-1,2,3,4-tetrahydro-pyrimidine-5-carboxylic acid indan-2-yl ester]
IC50 [1]: 800 nM | IC50 [2]: < 1000 nM

CC1=C(C(=O)OCCOCCc2ccsc2)C(CO)NC(=S)N1 (stereo not drawn) [16″, 4-hydroxymethyl-6-methyl-2-thioxo-1,2,3,4-tetrahydro-pyrimidine-5-carboxylic acid 2-(2-thiophen-3-yl-ethoxy)-ethyl ester]
IC50 [1]: > 100000 nM | IC50 [2]: > 20000 nM

CC1=C(C(=O)OCc2c(C)cc(C)cc2C)CNC(=S)N1 [Compound 142, 6-methyl-2-thioxo-1,2,3,4-tetrahydro-pyrimidine-5-carboxylic acid 2,4,6-trimethyl-benzyl ester]
IC50 [1]: 6000 nM | IC50 [2]: 1000 to 10000 nM

COc1ccc(C2(COC(=O)C3=C(C)NC(=S)NC3CF)CC2)cc1 (stereo not drawn) [66′, 4-fluoromethyl-6-methyl-2-thioxo-1,2,3,4-tetrahydro-pyrimidine-5-carboxylic acid 1-(4-methoxy-phenyl)-cyclopropylmethyl ester]
IC50 [1]: 8000 nM | IC50 [2]: 1000 to 10000 nM

CC(=O)OCC1NC(=S)NC(C)=C1C(=O)OCCCc1ccsc1 (stereo not drawn) [22″, 4-acetoxymethyl-6-methyl-2-thioxo-1,2,3,4-tetrahydro-pyrimidine-5-carboxylic acid 3-thiophen-3-yl-propyl ester]
IC50 [1]: 43000 nM | IC50 [2]: > 20000 nM

CSc1ccc(CCCOC(=O)C2=C(C)NC(=S)NC2)cc1 [Compound 105, 6-methyl-2-thioxo-1,2,3,4-tetrahydro-pyrimidine-5-carboxylic acid 3-(4-methylsulfanyl-phenyl)-propyl ester]
IC50 [1]: < 400 nM | IC50 [2]: < 1000 nM

CC1=C(C(=O)OCCCc2cccc3ccccc23)C(CO)NC(=S)N1 (stereo not drawn) [24″, 4-hydroxymethyl-6-methyl-2-thioxo-1,2,3,4-tetrahydro-pyrimidine-5-carboxylic acid 3-naphthalen-1-yl-propyl ester]
IC50 [1]: 800 nM | IC50 [2]: < 1000 nM

CC1=C(C(=O)OCCc2sccc2C)CNC(=S)N1 [Compound 257, 6-methyl-2-thioxo-1,2,3,4-tetrahydro-pyrimidine-5-carboxylic acid 2-(3-methyl-thiophen-2-yl)-ethyl ester]
IC50 [1]: < 400 nM | IC50 [2]: < 1000 nM

CC1=C(C(=O)OCCc2ccsc2Br)CNC(=S)N1 [Compound 247, 6-methyl-2-thioxo-1,2,3,4-tetrahydro-pyrimidine-5-carboxylic acid 2-(2-bromo-thiophen-3-yl)-ethyl ester]
IC50 [1]: < 400 nM | IC50 [2]: < 1000 nM

CC1=C(C(=O)OCC(Br)=CBr)CNC(=S)N1 [Compound 193, 6-methyl-2-thioxo-1,2,3,4-tetrahydro-pyrimidine-5-carboxylic acid 2,3-dibromo-allyl ester]
IC50 [1]: 1000 nM | IC50 [2]: < 1000 nM

CC1=C(C(=O)OCc2ccc(F)cc2F)CNC(=S)N1 [Compound 69, 6-methyl-2-thioxo-1,2,3,4-tetrahydro-pyrimidine-5-carboxylic acid 2,4-difluoro-benzyl ester]
IC50 [1]: 1200 nM | IC50 [2]: 1000 to 10000 nM

CC1=C(C(=O)OCCc2cccc(Cl)c2)C(CO)NC(=S)N1 (stereo not drawn) [31″, 4-hydroxymethyl-6-methyl-2-thioxo-1,2,3,4-tetrahydro-pyrimidine-5-carboxylic acid 2-(3-chloro-phenyl)-ethyl ester]
IC50 [1]: 1000 nM | IC50 [2]: < 1000 nM

O=C(O)CCCC1=C(C(=O)OCc2ccccc2)CNC(=S)N1 [Compound 170, 6-(3-carboxy-propyl)-2-thioxo-1,2,3,4-tetrahydro-pyrimidine-5-carboxylic acid benzyl ester]
IC50 [1]: 90000 nM | IC50 [2]: > 20000 nM

CC1=C(C(=O)OCCc2ccsc2)C(C(F)F)NC(=S)N1 (stereo not drawn) [80′, 4-difluoromethyl-6-methyl-2-thioxo-1,2,3,4-tetrahydro-pyrimidine-5-carboxylic acid 2-thiophen-3-yl-ethyl ester]
IC50 [1]: 11000 nM | IC50 [2]: 10000 to 20000 nM
